# Data reported in patent US6831080B2, “Cinnamide derivatives as KCNQ potassium channel modulators” (Bristol-Myers Squibb Company, priority 2001, dated 2004).
# Counter-ions that a name gives are not always drawn.
# Tests used:
# [1] = tested on: chlordiazepoxide + amphetamine induced hyperactivity, Sprague Dawley rats; experiment: Mania/bipolar model: chlordiazepoxide + d-amphetamine induced hyperactivity, locomotor activity; assay type: in vivo, rat
# Procedure: Subjects: Female Sprague Dawley rats (Hilltop Lab Animals, Scottdale, Pa.), weighing 150-200 g at the beginning of the experiment, were used in the experiment described in this example. Animals were individually housed in standard shoebox cages and maintained on a 12:12 h light-dark cycle (lights on at 0600). All animals were allowed food and water ad libitum throughout the experimental procedure. Prior to arrival to the testing facility, the rats were anesthetized with vaporized Isoflurane and catheters were surgically implanted into the jugular vein. The catheters were made of silastic medical grade tubing (15 cm long, 0.02″ internal diameter, 0.037″ external diameter), fastened with sutures to muscle near the jugular vein and at the nape of the neck, then sealed with smooth pieces of monofilament that were secured at the nape of the neck.
# Lithium chloride (LiCl), chlordiazepoxide hydrochloride (CDP) and d-amphetamine sulfate (Amph) were obtained from Sigma Chemical Company (St. Louis, Mo.). LiCl was dissolved in a vehicle of isotonic saline and injected intraperitoneally (i.p.) at a dose of 2 mEq/kg. CDP and Amph were dissolved in a vehicle of sterile water (Phoenix Scientific, Inc., St. Joseph, Mo.) and injected subcutaneously (s.c.) at a dose of 12.5 mg/kg and 1.18 mg/kg, respectively. Combination treatment of CDP and Amph represented the s.c. injection of a 1:1 mixture of both compounds at the above referenced doses. Compound of Example 1 was dissolved in dimethylsulfoxide (DMSO) and brought to volume with propylene glycol (PG) such that the final vehicle represented a 4% DMSO/96% PG solution. […]
# Thirty minutes after final s.c. dosing with either CDP+Amph, Amph alone or vehicle, rats were placed in locomotor activity testing apparatus. […] Data were analyzed using a priori planned analyses of variance where an effect was considered significant if p<0.05.
# mKCNQ2 channels = target: T1, mKCNQ2 channels (Mus musculus, UniProt Q9Z351); experiment: Whole-cell patch-clamp, HEK 293 stable cell line expressing mKCNQ2 channels; assay type: cell-based; settings: HEK 293 mKCNQ2, Hill fit
# T1 construct: expressed in transfected cells
# Procedure: Whole-cell patch-clamp recordings were made from an HEK 293 stable cell line expressing mKCNQ2 channels, maintained in culture for 1-2 days. Patch pipettes had initial resistances of 2.5-4 MΩ. Currents were recorded with an EPC-9 amplifier (HEKA, Lambrecht, Germany) controlled with software (Pulse, HEKA) run on a standard lab PC. Series resistance compensation was used during current recording, and set at 80%. The series resistance (R) and cell capacitance (C) were determined electronically by subtracting the capacitive currents at the onset and offset of a 5 mV voltage step. The cancellation of whole-cell capacitance transients was virtually complete in all cells. Analog current signals were low-pass filtered at 2.9 kHz using a four-pole Bessel filter −3 dB) and stored on a local network server computer at a sampling rate of […]. All recordings were performed at room temperature (20-22° C.). The pipette solution contained (mM): KCl, 150; CaCl2, 2.5; EGTA, 5; MgCl2, 1; HEPES, 10; pH to 7.3 with KOH, and Osmolality of 290-300 mOsm. The extracellular solution contained (mM): NaCl, 140; KCl, 2.5; CaCl2, 2.5; MgCl2, 1; glucose, 10; HEPES, 10; pH to 7.3 with NaOH, and Osmolality of 305-310 mOsm
# Concentration response data were generated by measuring the difference in the steady-state amplitude of current in the presence of compound at the end of a 600 ms voltage-clamp step from a holding potential of −80 mV. The concentration-response data were fitted with Hill-type equations: […]
# where I is the steady-state current at a given concentration of agonist [A]; and Imax, EC50 and nH are parameters estimated from the curve fit. In some cases the concentration-response data were fitted with equations consisting of the sum of two Hill-type components. Current-voltage (I/V) relationships for agonist-evoked currents were obtained by performing 600 ms voltage steps (−110 mV to +40 mV) in the absence and presence of agonist.
# [2] = tested on: streptozoticin-induced tactile allodynia, Sprague Dawley rats; experiment: Diabetic model of neuropathic pain (streptozoticin and von Frey test); assay type: in vivo, rat; settings: 10 mg/kg, i.v.; von Frey thresholds over 90 min; STZ diabetic model
# Procedure: To test agents for activity against systemic polyneuropathy nerve injury-induced tactile allodynia, animals were treated with streptozoticin (STZ) to create a diabetic condition by selective cytotoxic action upon pancreatic β-islet cells that produce insulin following the method of Courteix, et al. (Courteix C., et al., (1993) Pain, April;53(1):81-8). In brief, male Sprague Dawley rats (wt. 200-275 g) received an injection of STZ (75 mg/kg, i.p.) and diabetes was confirmed three weeks after STZ injection by measurement of tail vein blood glucose levels. After 3-4 weeks, paw withdrawal to light touch was assessed as described by Chaplan et al. (Chaplan S. R., et al., (1994) J Neurosci Methods, July;53(1):55-63). In brief, rats are placed in a plastic cage with a wire mesh bottom and allowed to acclimate for 15-30 minutes, until cage exploration and grooming stops. The plantar surface of each hind paw is touched with a series of von Frey hairs with varying stiffness requiring a known force to buckle to determine the nociceptive threshold. Adult male Sprague Dawley rats (avg. wt. 300 g) were tested in the present study. After acclimation, baseline von Frey thresholds were assessed for the injured hindpaw at -15 min. All test compounds were delivered at 0 min by the intravenous (i.v.) route in a volume of 0.5-2 ml/kg. […] Animals were tested in one of the following 4 treatment conditions: […] Following drug administration, von Frey thresholds are measured at 15, 30, 60 and 90 min. Data were analyzed by a 2-way repeated measures analysis of variance followed by Dunnett's test (p<0.05). Experimenters were kept blind to the treatment condition of rats they tested. […] Specifically, drug effects can be described in terms Δ% MPE according to the following equation: {[…] under the curve for von Frey thresholds of the drug-treated group; AUCvehicle=area under the curve for von Frey thresholds in the vehicle group; Time=duration of post-drug testing period (90 min); and Max=maximum von Frey threshold (15 g).
# [3] = tested on: nerve injury-induced tactile allodynia (L5/L6 ligation), Sprague Dawley rats; experiment: Chung model of neuropathic pain (Chung surgery and von Frey test); assay type: in vivo, rat; settings: i.v., von Frey thresholds over 90 min
# Procedure: To test agents for activity against peripheral mononeuropathy nerve injury-induced tactile allodynia, male Sprague Dawley rats (wt. 120-160 g) were surgically prepared with unilateral tight ligation of spinal nerves L5 and L6 following the method of Kim and Chung (Kim S. H., Chung J. M. (1992) Pain, September;50(3):355-63). After 3-4 weeks recovery, paw withdrawal to light touch was assessed as described by Chaplan et al. (Chaplan S. R., et al., (1994) J. Neurosci Methods, July;53(1):55-63). In brief, rats are placed in a plastic cage with a wire mesh bottom and allowed to acclimate for 15-30 minutes, until cage exploration and grooming stops. The plantar surface of each hind paw is touched with a series of von Frey hairs with varying stiffness requiring a known force to buckle to determine the nociceptive threshold. Adult male Sprague Dawley rats (avg. wt. 340 g) were tested in the present study. After acclimation, baseline von Frey thresholds were assessed for the injured hindpaw at −15 min. All test compounds were delivered at 0 min by the intravenous (i.v.) route in a volume of 0.5-2 ml/kg. The vehicle for test compounds was 100% PEG-400. For gabapentin the vehicle was deionized H2O. Animals were tested in one of the following 4 treatment conditions: (a) PEG400, (b) gabapentin (Neurontin) 100 mg/kg, (c) test compounds 3 mg/kg and (d) test compounds 10 mg/kg. Following drug administration, von Frey thresholds are measured at 15, 30, 60 and 90 min. Data were analyzed by a 2-way repeated measures analysis of variance followed by Dunnett's test (p<0.05). Experimenters were kept blind to the treatment condition of rats they tested.
# Reversal of neuropathic pain behavior may be expressed as a percentage (0-100%) of the maximum possible effect, over and above the vehicle effects. Specifically, drug effects can be described in terms Δ% MPE according to the following equation: [formula]
# AUCdrug=area under the curve for von Frey thresholds of the drug-treated group;
# AUCvehicle=area under the curve for von Frey thresholds in the vehicle group;
# Time=duration of post-drug testing period (90 min); and
# Max=maximum von Frey threshold (15 g).
# For example, a compound which immediately reversed neuropathic pain behavior to normal levels, such that animals only responded to the highest von Frey filament (15 g), and maintained normal levels through out the post-drug testing period (90 min) would be calculated as Δ% MPE=100%.
# [4] = tested on: cortical spreading depression (KCl application), Long-Evans rats; experiment: In vivo electrophysiology: number of cortical spreading depressions produced by KCl application; settings: 1 mg/kg, i.v., 15 min prior to KCl; rat
# From the text: Male Long-Evans rats (300-450 g) were used in the present studies (Harlan). Rats were anesthetized with urethane anesthesia (1.2 g/kg i.p.) and placed in a stereotaxic frame. Under anesthesia a Silastic catheter was placed in the jugular vein of the rats. The skull was exposed using a scalpel. A small hole (approximately 2 mm by 3 mm) was drilled in to the skull rostral to the lambdoid suture using a microdrill and steel burr. The dura was disrupted and a drop of mineral oil was placed in this hole to prevent dehydration of the underlying cortex. Ultimately this hole was used for the application of crystalline KCl (described below).
# Two additional holes were place in the skull unilaterally at 4 and 8 mm rostral to the application hole. Silver wire electrodes were placed in these latter holes and secured to the skull using acrylic cement. A similar silver wire electrode was sutured to the nuchal muscle to serve as a reference electrode. Electrical DC recordings were obtained using a standard differential amplifier (Warner, DP-304) and commercially available data acquisition equipment (Cambridge Electronic Design, 1401 A-D converter and Spike2 software).
# All experimental procedures were conducted while the rats were maintained under anesthesia. Rats were injected with test compound, valproic acid or vehicle (100% PEG-400) 15 min prior to the application of crystalline KCl to the application site described above. All injections were given via the jugular vein at a volume of ≦0.5 ml/kg. Only one treatment was tested per animal. The effect of valproic acid was also determined in this study due to the fact that Depakote™ (divalproex sodium) is one of only three drugs currently indicated for the prophylatic treatment of migraine headache. Valproic acid (30-200 mg/kg i.v.) was obtained from Sigma Chemical Company and was dissolved in a vehicle of isotonic saline.
# KCl was applied to the application site for 10 min and was then removed using a saline soaked cotton swab. Mineral oil was subsequently reapplied to the application site. Typically, this application produced a long-lasting series of spreading depressions. The number of spreading depressions produced by this KCl application was the primary measure used to access the effectiveness of compounds in this assay.
# Data were analyzed using analyses of variance followed by the Dunnett post-hoc test for pairwise comparisons, when appropriate. A difference was considered significant when p≦0.05.
# The effect of representative compounds of Formula I on spreading depression is expressed as the percent reduction from vehicle control and is listed in Table 3.
# T1 sequence (Q9Z351 whole entry): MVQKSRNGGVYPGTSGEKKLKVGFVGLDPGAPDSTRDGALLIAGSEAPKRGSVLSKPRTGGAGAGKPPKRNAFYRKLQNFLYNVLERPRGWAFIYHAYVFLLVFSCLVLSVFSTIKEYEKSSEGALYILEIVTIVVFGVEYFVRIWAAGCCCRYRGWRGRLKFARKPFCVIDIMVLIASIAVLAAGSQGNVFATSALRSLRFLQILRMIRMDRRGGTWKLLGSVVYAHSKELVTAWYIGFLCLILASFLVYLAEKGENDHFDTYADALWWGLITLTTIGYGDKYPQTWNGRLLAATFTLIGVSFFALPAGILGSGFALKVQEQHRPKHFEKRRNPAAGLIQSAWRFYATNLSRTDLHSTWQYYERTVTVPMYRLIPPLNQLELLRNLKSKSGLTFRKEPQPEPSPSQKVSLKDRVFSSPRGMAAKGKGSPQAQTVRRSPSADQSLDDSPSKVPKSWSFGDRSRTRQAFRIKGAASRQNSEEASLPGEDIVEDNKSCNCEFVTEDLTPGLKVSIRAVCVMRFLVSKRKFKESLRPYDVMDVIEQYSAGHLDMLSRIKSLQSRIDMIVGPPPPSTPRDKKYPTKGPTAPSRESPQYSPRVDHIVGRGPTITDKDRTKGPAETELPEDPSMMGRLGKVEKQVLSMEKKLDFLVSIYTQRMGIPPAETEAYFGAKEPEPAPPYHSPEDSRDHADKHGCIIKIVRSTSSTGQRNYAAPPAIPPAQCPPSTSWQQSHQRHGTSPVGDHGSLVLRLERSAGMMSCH
molecule,measurement,setting,value
C[C@H](NC(=O)/C=C/c1ccc(F)cc1)c1ccc2ccccc2c1 [Compound of Example 1],Horizontal Activity Counts,"[1]; 5 mg/kg i.v. 45 minutes pre-test, then chlordiazepoxide + d-amphetamine, first 10 minutes of testing","7,859.2 + 661.21 counts"
same,Effect on augmentation of locomotor scores produced by the combination treatment,"[1]; 5 mg/kg i.v. 45 minutes pre-test, F(1,16)=10.4, p=0.005",significantly prevented
"C[C@H](NC(=O)/C=C/c1cc(F)ccc1F)c1cccc(N2CCOCC2)c1 [Example 90, (S)-3-(2,5-Difluoro-phen-yl)-N-[1-(3-morpho-lin-4-yl-phenyl)-eth-yl]-acrylamide]",EC50,mKCNQ2 channels; @ −40 mV,1.2 µM
same,Emax,"mKCNQ2 channels; HEK293, read-out: Imax (%)",523%
same,AUC (Δ% MPE),[2],"56 (10 mg/kg, i.v.) Δ% MPE"
same,AUC (Δ% MPE),[3]; 3 mg/kg,"13 (3 mg/kg, i.v.) Δ% MPE"
same,"% Reduction (number of spreading depressions, from vehicle control)",[4],"37 (1 mg/kg, i.v.) %"
"NCC1(CC(=O)O)CCCCC1 [Gabapentin, gabapentin, reference compound]",AUC (Δ% MPE),[3]; 100 mg/kg,"50 (100 mg/kg, i.v.) Δ% MPE"
"C[C@H](N)Cc1ccccc1 [d-amphetamine, d-amphetamine sulfate, reference compound]",Horizontal Activity Counts,"[1]; rat, in vivo","8,772.3 + 426.02 counts"
"(S)-N-[1-(3-(2,6-di- methyl-Morpholin)-4-yl-phen- yl)-ethyl]-3-phen- yl-acrylamide [Example 84]","% Reduction (number of spreading depressions, from vehicle control)",[4],"37 (1 mg/kg, i.v.) %"
